In US9527850B2, “Benzyl piperidine compounds as lysophosphatidic acid (LPA) receptor antagonist” (Merck Patent GmbH, priority 2011, dated 2016):

molecular target: T1, LPA2 receptor (LPA2R) (Homo sapiens, UniProt Q9HBW0); assay: LPA2R-Calciumflux assay (intracellular calcium mobilisation, FLIPR); type: cell-based; settings: U2OS cells recombinant expressing LPA2R; inhibition of LPA-induced Ca-flux; 10 concentrations 30 uM to 1 nM, 1% DMSO
T1 construct: expressed in transfected cells; host or cells: U2OS
T1 sequence (Q9HBW0 whole entry): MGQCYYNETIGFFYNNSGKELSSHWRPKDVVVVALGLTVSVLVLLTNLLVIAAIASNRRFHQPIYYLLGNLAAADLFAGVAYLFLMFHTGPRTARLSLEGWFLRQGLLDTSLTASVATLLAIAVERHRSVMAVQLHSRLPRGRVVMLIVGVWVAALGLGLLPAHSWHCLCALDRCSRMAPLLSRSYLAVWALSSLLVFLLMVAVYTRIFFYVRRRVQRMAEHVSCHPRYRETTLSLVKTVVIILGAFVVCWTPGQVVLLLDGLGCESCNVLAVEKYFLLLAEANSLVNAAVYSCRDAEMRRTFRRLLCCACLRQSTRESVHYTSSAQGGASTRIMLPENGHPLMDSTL
Source text: The assay detects intra cellular calcium which is generated by cells upon activation of the LPA2 receptor by its ligand LPA. This transient calcium mobilization can be monitored using a commercial calcium detection kit (e.g. from Molecular Devices). The main component of such a kit is a dye, which becomes fluorescent when calcium is present—a transient fluorescence signal after laddition of a ligand to a test well are the result. Readers like the FLIPR (Molecular Devices) can be used to monitor such transient “Ca-flux” signals.
The signals are calculated according to peak maximum minus base line.
The assay is performed in microplates (384 wells per plate).
LPA2R-Calciumflux Assay Protocol
The assay is run according to the following procedure: • 50 uL seed cells (10000 cells/well in DMEM buffer) • Incubate 24 h at 37° C., 10% CO2 • aspirate medium • 50 uL add calcium dye 1×HBSS/HEPES buffer • incubate 1 h at 37° C. (“loading”) • equilibrate 10 min at RT • 5 uL add compounds in HEPES buffer • shake 10 sec. at 1000 rpm • incubate 15 min at RT • 20 uL add LPA (in the FLIPR Tetra) in Krebs-buffer/BSA & measurement
The cells are seeded in DMEM buffer (DMEM, 10% FCS, 10 mM HEPES, 1% Pen/Strep).
Dye loading is done in HBSS/HEPES buffer (100 mL 10×HBSS+20 mL 1M HEPES+880 mL water, pH 7.4)
The LPA is added in Krebs/BSA buffer (120 mM NaCl, 5 mM KCl, 0.62 mM MgSO4, 1.8 mM CaCl2, 10 mM HEPES, 6 mM D(+)-Glucose, 0.2% BSA, pH 7.4).
The compounds are pre-diluted in HEPES buffer (20 mM, pH 7.4), whereby the final DMSO content in the assay is kept at 1%. The compounds are pre-diluted in order to generate dose response series on the microplates. The dose response series consist of 10 concentrations for each compound from 30 uM final to 1 nM final. From all compound wells the resulting signals are referred to control wells (located on each plate besides the compound wells) in terms of % activity.
From these % activity values—along with the corresponding compound concentrations—IC50 values are fitted for each compound using standard fitting programs such as Graphpad Prism. Here the method “log(inhibitor) vs. response—Variable slope” is used.

Row | IC50 [µM] | SMILES
1 | > 15 | Cc1ccc(CN2CCCC[C@H]2c2cc3ccccc3[nH]2)cc1 [Example Compound 143, 2-[(S)-1-(4-Methyl-benzyl)-piperidin-2-yl]-1H-indole]
2 | 0.5 to 5 | COc1ccc(CN2CCCCC2c2cc3ccccc3[nH]2)cc1 (stereo not drawn) [compound 1, 2-[1-(4-Methoxy-benzyl)-piperidin-2-yl]-1H-indole]
3 | < 0.5 | Cc1cccc(CN2CCCCC2c2cc3ccccc3[nH]2)c1 (stereo not drawn) [compound 2, 2-[1-(3-Methyl-benzyl)-piperidin-2-yl]-1H-indole]
4 | < 0.5 | Fc1ccc(CN2CCCCC2c2cc3ccccc3[nH]2)cc1 (stereo not drawn) [compound 3, 2-[1-(4-Fluoro-benzyl)-piperidin-2-yl]-1H-indole]
5 | < 0.5 | COc1cccc(CN2CCCCC2c2cc3ccccc3[nH]2)c1 (stereo not drawn) [compound 4, 2-[1-(3-Methoxy-benzyl)-piperidin-2-yl]-1H-indole]
6 | < 0.5 | Cc1ccc(CN2CCCCC2c2cc3ccccc3[nH]2)cc1C (stereo not drawn) [compound 5, 2-[1-(3,4-Dimethyl-benzyl)-piperidin-2-yl]-1H-indole]
7 | 0.5 to 5 | c1ccc(CN2CCCCC2c2cc3ccccc3[nH]2)cc1 (stereo not drawn) [compound 6, 2-(1-Benzyl-piperidin-2-yl)-1H-indole]
8 | 5 to 15 | Cn1cccc1CN1CCCCC1c1cc2ccccc2[nH]1 (stereo not drawn) [compound 10]
9 | < 0.5 | Cc1ccc(CN2CCCCC2c2cc3ccccc3[nH]2)cc1 (stereo not drawn) [compound 13, 2-[1-(4-Methyl-benzyl)-piperidin-2-yl]-1H-indole]
10 | 0.5 to 5 | Cc1cccc(CN2CCCCC2c2cc3cc(F)ccc3[nH]2)c1 (stereo not drawn) [compound 14, 5-Fluoro-2-[1-(3-methyl-benzyl)-piperidin 2-yl]-1H-indole]
11 | 5 to 15 | FC(F)(F)c1cccc(CN2CCCCC2c2cc3ccccc3[nH]2)c1 (stereo not drawn) [compound 17]
12 | 5 to 15 | N#Cc1ccc(CN2CCCCC2c2cc3ccccc3[nH]2)cc1 (stereo not drawn) [compound 19, 4-[2-(1H-Indol-2-yl)-piperidin-1-ylmethyl]-benzonitrile]
13 | 0.5 to 5 | Cc1cccc(CN2CCCCC2c2cc3cccc(C)c3[nH]2)c1 (stereo not drawn) [compound 20, 7-Methyl-2-[1-(3-methyl-benzyl)-piperidin-2-yl]-1H-indole]

The remaining lines, values behind:

Row | SMILES | IC50 [µM]
14 | Cn1cc(CN2CCCCC2c2cc3ccccc3[nH]2)c2ccccc21 (stereo not drawn) [compound 8, 3-[2-(1H-Indol-2-yl)-piperidin-1-ylmethyl]-1-methyl-1H-indole] | 0.5 to 5
15 | CC(C)n1cc(CN2CCCCC2c2cc3ccccc3[nH]2)c2ccccc21 (stereo not drawn) [compound 9, 3-[2-(1H-Indol-2-yl)-piperidin-1-ylmethyl]-1-isopropyl-1H-indole] | 0.5 to 5
16 | Cc1ccc(CN2CCCCC2c2cc3cc(F)ccc3[nH]2)cc1C (stereo not drawn) [compound 15, 2-[1-(3,4-Dimethyl-benzyl)-piperidin-2-yl]-5-fluoro-1H-indole] | 0.5 to 5
17 | FC(F)(F)c1ccccc1CN1CCCCC1c1cc2ccccc2[nH]1 (stereo not drawn) [compound 16] | 5 to 15
18 | FC(F)(F)c1ccc(CN2CCCCC2c2cc3ccccc3[nH]2)cc1 (stereo not drawn) [compound 18] | 0.5 to 5
19 | Cc1cccc(CN2CCCCC2c2cc3cc(F)cc(F)c3[nH]2)c1 (stereo not drawn) [compound 21, 5,7-Difluoro-2-[1-(3-methyl-benzyl)-piperidin-2-yl]-1H-indole] | 5 to 15
20 | Cc1ccc(CN2CCCCC2c2cc3cc(F)cc(F)c3[nH]2)cc1 (stereo not drawn) [compound 22, 5,7-Difluoro-2-[1-(4-methyl-benzyl)-piperidin-2-yl]-1H-indole] | 5 to 15
21 | Cc1ccc(CN2CCCCC2c2cc3cc(F)cc(F)c3[nH]2)cc1C (stereo not drawn) [compound 23, 2-[1-(3,4-Dimethyl-benzyl)-piperidin-2-yl]-5,7-difluoro-1H-indole] | 0.5 to 5
22 | Cc1ccc(CN2CCCCC2c2cc3c(F)ccc(F)c3[nH]2)cc1C (stereo not drawn) [compound 24, 2-[1-(3,4-Dimethyl-benzyl)-piperidin-2-yl]-4,7-difluoro-1H-indole] | 0.5 to 5
23 | CCOC(=O)c1ccc(CN2CCCCC2c2cc3ccccc3[nH]2)cc1 (stereo not drawn) [compound 25, 4-[2-(1H-Indol-2-yl)-piperidin-1-ylmethyl]-benzoic acid ethyl ester] | 0.5 to 5
24 | CC1CCCC(c2cc3ccccc3[nH]2)N1Cc1ccccc1O (stereo not drawn) [compound 26, 2-[2-(1H-Indol-2-yl)-6-methyl-piperidin-1-ylmethyl]-phenol] | 0.5 to 5
25 | Cc1ccc(CN2C(C)CCCC2c2cc3ccccc3[nH]2)cc1C (stereo not drawn) [compound 27, 2-[1-(3,4-Dimethyl-benzyl)-6-methyl-piperidin-2-yl]-1H-indole] | < 0.5
26 | COc1ccccc1CN1C(C)CCCC1c1cc2cc(F)ccc2[nH]1 (stereo not drawn) [compound 28, 5-Fluoro-2-[1-(2-methoxy-benzyl)-6-methyl-piperidin-2-yl]-1H-indole] | 0.5 to 5
27 | CC1CCCC(c2cc3cc(F)ccc3[nH]2)N1Cc1ccccc1O (stereo not drawn) [compound 29, 2-[2-(5-Fluoro-1H-indol-2-yl)-6-methyl-piperidin-1-ylmethyl]-phenol] | 0.5 to 5
28 | Cc1cccc(CN2C(C)CCCC2c2cc3cc(F)ccc3[nH]2)c1 (stereo not drawn) [compound 30, 5-Fluoro-2-[6-methyl-1-(3-methyl-benzyl)-piperidin-2-yl]-1H-indole] | < 0.5
29 | CC1CCCC(c2cc3cc(F)ccc3[nH]2)N1Cc1cccc([N+](=O)[O-])c1 (stereo not drawn) [compound 31, 5-Fluoro-2-[6-methyl-1-(3-nitro-benzyl)-piperidin-2-yl]-1H-indole] | 0.5 to 5
30 | CC1CCCC(c2cc3cc(F)ccc3[nH]2)N1Cc1ccc(C#N)cc1 (stereo not drawn) [compound 32, 4-[2-(5-Fluoro-1H-indol-2-yl)-6-methyl-piperidin-1-ylmethyl]-benzonitrile] | 0.5 to 5
31 | CC1CCCC(c2cc3cc(F)ccc3[nH]2)N1Cc1ccc(S(C)(=O)=O)cc1 (stereo not drawn) [compound 33] | 0.5 to 5
32 | CCOc1ccc(CN2C(C)CCCC2c2cc3cc(F)ccc3[nH]2)cc1 (stereo not drawn) [compound 34, 2-[1-(4-Ethoxy-benzyl)-6-methyl-piperidin-2-yl]-5-fluoro-1H-indole] | 0.5 to 5
33 | CCOC(=O)c1ccc(CN2C(C)CCCC2c2cc3cc(F)ccc3[nH]2)cc1 (stereo not drawn) [compound 35, 4-[2-(5-Fluoro-1H-indol-2-yl)-6-methyl-piperidin-1-ylmethyl]-benzoic acid ethyl ester] | 0.5 to 5
34 | CC1CCCC(c2cc3cc(F)ccc3[nH]2)N1Cc1ccc(F)cc1 (stereo not drawn) [compound 36, 5-Fluoro-2-[1-(4-fluoro-benzyl)-6-methyl-piperidin-2-yl]-1H-indole] | < 0.5
35 | CC1CCCC(c2cc3cc(F)ccc3[nH]2)N1Cc1ccc(F)cc1F (stereo not drawn) [compound 37, 2-[1-(2,4-Difluoro-benzyl)-6-methyl-piperidin-2-yl]-5-fluoro-1H-indole] | 0.5 to 5
36 | Cc1ccc(CN2C(C)CCCC2c2cc3cc(F)ccc3[nH]2)o1 (stereo not drawn) [compound 38, 5-Fluoro-2-[6-methyl-1-(5-methyl-furan-2-ylmethyl)-piperidin-2-yl]-1H-indole] | < 0.5
37 | CC1CCCC(c2cc3cc(F)ccc3[nH]2)N1Cc1ccc(Cl)cc1 (stereo not drawn) [compound 39, 2-[1-(4-Chloro-benzyl)-6-methyl-piperidin-2-yl]-5-fluoro-1H-indole] | 0.5 to 5
38 | COc1cccc(CN2C(C)CCCC2c2cc3cc(F)ccc3[nH]2)c1 (stereo not drawn) [compound 40, 5-Fluoro-2-[1-(3-methoxy-benzyl)-6-methyl-piperidin-2-yl]-1H-indole] | < 0.5
39 | CC1CCCC(c2cc3cc(F)ccc3[nH]2)N1Cc1cccnc1 (stereo not drawn) [compound 41, 5-Fluoro-2-(6-methyl-1-pyridin-3-ylmethyl-piperidin-2-yl)-1H-indole] | 0.5 to 5
